Like-named read-outs stand apart in the source and are kept apart here.
Columns and labels:
[1] = Mouse blood levels after subcutaneous administration; conditions: in vivo, sc, 20 mg/kg
Description: Mouse blood levels of BB-[…] and BB-[…] were determined by subcutaneous administration of 20 mg/kg of the penicillin to groups of three mice. Blood samples collected from orbital sinuses were assayed by the paper disk agar-diffusion method on Sarcina lutea PC1 1001 plates.

[2] = tested on: E. coli; assay: Serial twofold agar dilution (Mueller-Hinton agar), E. coli; assay type: cell-based; conditions: Escherichia coli
Description: (§1) The Minimum Inhibitory Concentrations (MIC) for sodium 6-[D-(-)-α-phenyl-α-(7-hydroxy-4-oxo-4H-pyrimido[1,2-b]pyridazin-3-ylcarboxamido)acetamido]penicillanate (BB-P598) and sulbenicillin were determined by the serial twofold agar dilution method using Steers' apparatus on Mueller-Hinton agar plates against 31 test organisms for the primary screening (Table 1) and also against 61 strains of Pseudomonas aeruginosa for the secondary evaluation (Table 2).
(§2) Minimum Inhibitory Concentrations (MIC) for sodium 6-[D-(-)-α-phenyl-α-(7-hydroxy-4-oxo-4H-pyrimido[1,2-b]pyridazin-3-ylcarboxamido)acetamido]pencillanate (BB-P598), sodium 6-[D-(-)-α-(4-hydroxyphenyl)-α-(7-hydroxy-4-oxo-4H-pyrimido[1,2-b]pyridazin-3-ylcarboxamido)acetamido]-penicillanate (BB-P642) and carbenicillin were determined by the serial twofold agar dilution method using Steers' apparatus on Mueller-Hinton agar plates against 31 tests organisms (Table 8) and also against 61 strains of Pseudomonas aeruginosa (Table 9). In terms of mean % relative activity compared with carbenicillin, compounds BB-B598 and BB-P642 were 856% and 1319% as active as carbenicillin against the 61 Pseudomonas strains of Table 9.

[3] = tested on: E. cloacae; assay: Serial twofold agar dilution (Mueller-Hinton agar), E. cloacae; assay type: cell-based; conditions: Enterobacter cloacae
Description: as §1, §2

[4] = tested on: P. vulgaris; assay: Serial twofold agar dilution (Mueller-Hinton agar), P. vulgaris; assay type: cell-based
Description: as §1, §2

[5] = tested on: Klebsiella sp.; assay: Serial twofold agar dilution (Mueller-Hinton agar), Klebsiella sp.; assay type: cell-based; conditions: Klebsiella sp. A20452, Mueller-Hinton agar
Description: as §1, §2

[6] = tested on: K. pneumoniae; assay: Serial twofold agar dilution (Mueller-Hinton agar), K. pneumoniae; assay type: cell-based
Description: as §1, §2

[7] = tested on: Pseudomonas sp.; assay: Serial twofold agar dilution (Mueller-Hinton agar), Pseudomonas sp.; assay type: cell-based
Description: as §1, §2

[8] = tested on: Pseudomonas aeruginosa; assay: Serial twofold agar dilution (Mueller-Hinton agar), P. aeruginosa; assay type: cell-based; conditions: for MIC: Pseudomonas aeruginosa
Description: as §1, §2

CC1(C)S[C@@H]2[C@H](NC(=O)[C@H](NC(=O)c3cnc4ccc(O)nn4c3=O)c3ccccc3)C(=O)N2[C@H]1C(=O)O [BB-P598, sodium 6-[D-(-)-α-phenyl-α-(7-hydroxy-4-oxo-4H-pyrimido[1,2-b]pyridazin-3-ylcarboxamido)acetamido]penicillanate]
4.2 µg/mL: MIC ([8]; 61 strains of P. aeruginosa, Table 2, read-out: Geometric mean of MIC)
1.6 µg/mL: MIC ([2]; E. coli Juhl A20520, Table 1, read-out: MIC) | MIC ([7]; Pseudomonas sp. A20358, Table 1, read-out: MIC) | MIC ([7]; Pseudomonas sp. A20358, Table 8) | MIC ([8]; GN315, Pa-27 GN315 A21294, Mueller-Hinton agar, Table 9, read-out: MIC) | MIC ([8]; P. aeruginosa A9930, Mueller-Hinton agar, Table 1, read-out: MIC) | MIC ([8]; P. aeruginosa A9930, Mueller-Hinton agar, Table 8, read-out: MIC) | MIC ([8]; P. aeruginosa A15150, Mueller-Hinton agar, Table 8, read-out: MIC) | MIC ([8]; P. aeruginosa A20229, Mueller-Hinton agar, Table 1, read-out: MIC) | MIC ([8]; Pa-3 1449VA A9930, Mueller-Hinton agar, Table 2, read-out: MIC) | MIC ([8]; Pa-5 M4865, K.C A15150, Mueller-Hinton agar, Table 9, read-out: MIC) | MIC ([8]; Pa-17 H6, D114, Mueller-Hinton agar, Table 9, read-out: MIC) | MIC ([8]; Pa-18 H8, D121, Mueller-Hinton agar, Table 9, read-out: MIC) | MIC ([8]; Pa-19 A20229, Mueller-Hinton agar, Table 2, read-out: MIC) | MIC ([8]; Pa-25 A20897, Mueller-Hinton agar, Table 2, read-out: MIC) | MIC ([8]; Pa-25 A20897, Mueller-Hinton agar, Table 9, read-out: MIC)
3.5 µg/mL: MIC ([8]; 61 strains of P. aeruginosa, Table 9, read-out: Geometric mean of MIC)
3.1 µg/mL: MIC ([2]; E. coli A20520, Table 8, read-out: MIC) | MIC ([2]; E. coli Juhl A9844, Table 1, read-out: MIC) | MIC ([2]; E. coli NIHJ, Table 8, read-out: MIC) | MIC ([8]; GN315, Pa-27 GN315 A21294, Mueller-Hinton agar, Table 2, read-out: MIC) | MIC ([8]; P. aeruginosa A9843, Mueller-Hinton agar, Table 1, read-out: MIC) | MIC ([8]; P. aeruginosa A9843, Mueller-Hinton agar, Table 8, read-out: MIC) | MIC ([8]; Pa-2 V.A A9923, Mueller-Hinton agar, Table 9, read-out: MIC) | MIC ([8]; Pa-2 VA A9923, Mueller-Hinton agar, Table 2, read-out: MIC) | MIC ([8]; Pa-3 1449 V.A A9930, Mueller-Hinton agar, Table 9, read-out: MIC) | MIC ([8]; Pa-4 H9, D113 A21295, Mueller-Hinton agar, Table 9, read-out: MIC) | MIC ([8]; Pa-5 M4865KC A15150, Mueller-Hinton agar, Table 2, read-out: MIC) | MIC ([8]; Pa-11 A20616, Mueller-Hinton agar, Table 2, read-out: MIC) | MIC ([8]; Pa-14 A20325, Mueller-Hinton agar, Table 2, read-out: MIC) | MIC ([8]; Pa-17 H6 D114, Mueller-Hinton agar, Table 2, read-out: MIC) | MIC ([8]; Pa-18 H8 D121, Mueller-Hinton agar, Table 2, read-out: MIC) | MIC ([8]; Pa-20 A20325, Mueller-Hinton agar, Table 9, read-out: MIC) | MIC ([8]; Pa-21 A20601, Mueller-Hinton agar, Table 2, read-out: MIC) | MIC ([8]; Pa-21 A20601, Mueller-Hinton agar, Table 9, read-out: MIC) | MIC ([8]; Pa-23 A20741, Mueller-Hinton agar, Table 9, read-out: MIC)
900 ng/mL: concentration at 0.5 h [1]
3570 ng/mL: concentration at 0.25 h [1]
756%: Mean % relative activity (sulbenicillin = 100%) ([8]; 61 strains of P. aeruginosa, Table 2)
100 µg/mL: MIC ([2]; E. coli Juhl A20732, Table 1, read-out: MIC) | MIC ([3]; E. cloacae A9657, Table 8) | MIC ([8]; Pa-10 A21479, Mueller-Hinton agar, Table 9, read-out: MIC) | MIC ([8]; Pa-24 A20896, Mueller-Hinton agar, Table 9, read-out: MIC)
856%: Mean % relative activity compared with carbenicillin ([8]; 61 strains of P. aeruginosa, Table 9)
> 100 µg/mL: MIC ([2]; E. coli A20366, Table 8, read-out: MIC) | MIC ([2]; E. coli A20898, Table 8, read-out: MIC) | MIC ([2]; E. coli Juhl A20366, Table 1, read-out: MIC) | MIC ([2]; E. coli Juhl A20898, Table 1, read-out: MIC) | MIC ([8]; Pa-10 A20479, Mueller-Hinton agar, Table 2, read-out: MIC)
0.8 µg/mL: MIC ([2]; E. coli A20664, Table 8, read-out: MIC) | MIC ([2]; E. coli Juhl A20664, Table 1, read-out: MIC) | MIC ([2]; E. coli NIHJ, Table 1, read-out: MIC) | MIC ([8]; P. aeruginosa A15150, Mueller-Hinton agar, Table 1, read-out: MIC) | MIC ([8]; Pa-16 #130 A20718, Mueller-Hinton agar, Table 2, read-out: MIC) | MIC ([8]; Pa-19 A20229, Mueller-Hinton agar, Table 9, read-out: MIC)
25 µg/mL: MIC ([3]; E. cloacae A9656, Table 1) | MIC ([3]; E. cloacae A9656, Table 8) | MIC ([3]; E. cloacae A9659, Table 1) | MIC ([3]; E. cloacae A9659, Table 8) | MIC ([4]; P. vulgaris A9539, Table 1) | MIC ([4]; Proteus vulgaris, P. vulgaris A9539, Table 8, read-out: MIC) | MIC ([5]; Table 1, read-out: MIC) | MIC ([8]; Pa-6 No. 5 A15194, Mueller-Hinton agar, Table 2, read-out: MIC) | MIC ([8]; Pa-24 A20896, Mueller-Hinton agar, Table 2, read-out: MIC)
0.4 µg/mL: MIC ([8]; Pa-16 #130 A20718, Mueller-Hinton agar, Table 9, read-out: MIC)
6.3 µg/mL: MIC ([2]; E. coli A9844, Table 8, read-out: MIC) | MIC ([8]; ATCC19660, Pa-14 ATCC 19660 A20325, Mueller-Hinton agar, Table 9, read-out: MIC) | MIC ([8]; GN4925, Pa-45 GN4925, Mueller-Hinton agar, Table 2, read-out: MIC) | MIC ([8]; GN4925, Pa-45 GN 4925, Mueller-Hinton agar, Table 9, read-out: MIC) | MIC ([8]; P. aeruginosa A20717, Mueller-Hinton agar, Table 1, read-out: MIC) | MIC ([8]; P. aeruginosa A20717, Mueller-Hinton agar, Table 8, read-out: MIC) | MIC ([8]; Pa-1 D15, Mueller-Hinton agar, Table 2, read-out: MIC) | MIC ([8]; Pa-1 D15, Mueller-Hinton agar, Table 9, read-out: MIC) | MIC ([8]; Pa-4 H9 D113 A21295, Mueller-Hinton agar, Table 2, read-out: MIC) | MIC ([8]; Pa-7 A9843, Mueller-Hinton agar, Table 2, read-out: MIC) | MIC ([8]; Pa-11 A20616, Mueller-Hinton agar, Table 9, read-out: MIC) | MIC ([8]; Pa-12 A20653, Mueller-Hinton agar, Table 2, read-out: MIC) | MIC ([8]; Pa-12 A20653, Mueller-Hinton agar, Table 9, read-out: MIC) | MIC ([8]; Pa-15 A20717, Mueller-Hinton agar, Table 2, read-out: MIC) | MIC ([8]; Pa-20 A20325, Mueller-Hinton agar, Table 2, read-out: MIC) | MIC ([8]; Pa-23 A20741, Mueller-Hinton agar, Table 2, read-out: MIC)
12.5 µg/mL: MIC ([2]; E. coli A9635, Table 8, read-out: MIC) | MIC ([2]; E. coli Juhl A9435, Table 1) | MIC ([2]; E. coli Juhl A15119, Table 1, read-out: MIC) | MIC ([2]; E. coli Juhl A15119, Table 8, read-out: MIC) | MIC ([5]; Table 8, read-out: MIC) | MIC ([6]; K. pneumoniae A9977, Table 1) | MIC ([6]; Klebsiella pneumoniae, K. pneumoniae A9977, Table 8, read-out: MIC) | MIC ([8]; Pa-6 No. 5 Levitan A15194, Mueller-Hinton agar, Table 9, read-out: MIC) | MIC ([8]; Pa-15 A20717, Mueller-Hinton agar, Table 9, read-out: MIC)
50 µg/mL: MIC ([2]; E. coli A20732, Table 8, read-out: MIC) | MIC ([3]; E. cloacae A9657, Table 1)
